Experimental data as given in patent publication US20190211317A1, “PEPTIDES AND NANOPARTICLES FOR INTRACELLULAR DELIVERY OF GENOME-EDITING MOLECULES” (Aadigen, LLC, priority 2016, published 2019).
“And” between values parts separate entries of the source, which are not always exact repeats. Identical values can stand only once. Non-standard residues stand in square brackets, D forms with d. Residues, ends and D or L forms follow the SMILES beside them. βAla = NCCC(=O)O

What was measured:
[1] = tested on: EGFP reporter gene in EGFP-U2OS, EGFP-HEK, EGFP-JURKAT cells; experiment: EGFP reporter gene disruption from CPP delivery of CAS9:sgRNA (flow cytometry); assay type: cell-based, human; settings: for reduction of EGFP-positive cells: EGFP-JURKAT; for decrease in EGFP expression: CAS9:gRNA 50 nM, CPP:cargo 20:1; for reduction of EGFP-expressing cells / loss of EGFP expression: JURKAT; for reduction of EGFP-expressing cells / loss of EGFP expression / loss of EGFP expression: 1 nM CAS9:gRNA; for loss of EGFP expression: both cell lines (U2OS, HEK);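 for all read-outs here: cells carrying one integrated EGFP reporter received peptide-complexed CAS9 preloaded 1:1 with EGFP sgRNA, cultured 72 h, then EGFP level read by flow cytometry, lipofectamine 2000 and RNAiMAX as positive controls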
Method: Efficacy of CPP-mediated delivery was quantified using a well-established CAS9-induced gene disruption method (Fu et al, 2013, supra), by targeting a specific site in the exogenous EGFP gene reporter in three human cell lines expressing EGFP (GFP-U2OS, EGFP-HEK, EGFP-JURKAT).
Stock solutions of amphipathic peptides were prepared at 1 mg/mL in distilled water and sonicated for 10 min. CAS9 protein was preloaded with purified EGFP sgRNA at a molar ratio of 1:1 and incubated for 10 min prior to forming complexes with the peptides. Preloaded CAS9/gRNA complexes (10 nM, 25 nM, and 50 nM) were mixed with CPPs at 5:1, 10:1 and 20:1 molar ratios of CPP to cargo and incubated for 30 min at 37° C. prior to cell transfection.
Cell line containing a single integrated EGFP reporter gene (GFP-U2OS, EGFP-HEK and EGFP-JURKAT) were cultured in Dulbecco's Modified Eagle's Medium (DMEM), supplemented with 2 mM glutamine, 1% antibiotics (streptomycin 10,000 μg/mL, penicillin, 10,000 IU/mL) and 10% (w/v) foetal calf serum (FCS) at 37° C. in a humidified atmosphere containing 5% CO2. A total of 150,000 cells seeded in a 35 mm dish the day prior to transfection were grown to 50-60% confluence and overlaid with 200 μl of preformed complexes, incubated for 3-5 min, then 400 μl of DMEM was added. After 30 min incubation at 37° C., 1 mL of fresh DMEM containing 16% FCS was added to reach a final FCS concentration of 10%, without removing the overlay of CPP/CAS9-gRNA complexes. Cells were returned to the incubator for 72 hours.
CAS9-induced double-strand break formation was analyzed using flow cytometry by monitoring level of EGFP expression. […] Both lipofectamine 2000 and RNAiMAX delivery methods were used as positive controls.

[2] = tested on: U2OS, HEPG2, K562 cells and primary human fibroblasts; experiment: CAS9 protein expression after CPP delivery of CAS9 mRNA (ELISA); assay type: cell-based; settings: day 3
Method: CPP/CAS9 mRNA complexes were formed by mixing the CAS9 mRNA (0.5 μg) with CPP at a 20:1 molar ratio of CPP:CAS9 mRNA and incubating for 30 min at 37° C. prior to cell transfection. Cells were transfected according to optimized protocols for either adherent or suspension cell lines.
Human primary fibroblasts were freshly obtained and grown in flasks pre-coated with a gelatin-based coating solution and incubated in Culture Complete Growth Medium for 3 days before expansion and treatment. U2OS cells were cultured in Dulbecco's Modified Eagle's Medium (DMEM), supplemented with 2 mM glutamine, 1% antibiotics (streptomycin 10,000 μg/mL, penicillin, 10,000 IU/mL) and 10% (w/v) foetal calf serum (FCS), at 37° C. in a humidified atmosphere containing 5% CO2. 35 mm dishes seeded with 150,000 cells the day prior to transfection were grown to 50-60% confluence and set up to be at about 70% confluences at the time of transfection. Before transfection, cells were washed with DMEM (2×) followed by PBS (1×). Cells were then overlaid with 0.2 ml of complex solution (16 μl CPP/Cargo complex in water+184 μl OPTiMEM without antibiotics), mixed gently, and incubated for 10 min at 37° C. 0.8 mL of fresh OPTiMEM or DMEM was then added and cells were incubated for 20 min at 37° C. 2 mL of complete OPTiMEM (high glucose) or DMEM containing 11.4% FCS was then added in order to reach a final FCS concentration of 10%, without removing the overlay of CPP/Cargo complexes. Cells were returned to the incubator (37° C., 5% CO2) and assayed at 72 hours post transfection.
K562 and HEpG2 cells were set up to be at about 70% confluence at the time of transfection. The cells were maintained in high glucose DMEM media with 10% serum. Before transfection, cells were harvested by centrifugation, then washed with DMEM (2×) followed by PBS (1×). Cells were then resuspended in 0.2 ml of complex solution (16 μl CPP/Cargo complex in water+184 μl OPTiMEM without antibiotics), mixed gently, and incubated for 10 min at 37° C. 0.8 mL of fresh OPTiMEM was then added and cells were incubated for 20 min at 37° C. 2 mL of complete OPTiMEM (high glucose) containing 11.4% FCS was then added in order to reach a final FCS concentration of 10%, without removing the overlay of CPP/Cargo complexes. Cells were returned to the incubator (37° C., 5% CO2) and assayed at 72 hours post transfection.
RNAiMAX lipid-based delivery (Invitrogen Thermo Fisher France) was used as a control and transfections were performed following the manufacturer's instructions. CAS9 expression level was analyzed at multiple time points over a period of 10 days as determined by ELISA on protein extracts using antibodies against CRISPR/Cas9 obtained from Diagenode (Diagenode cat. No. C15200223) and ABCAM (clone 7A9-ab191468).

[3] = tested on: endogenous EMX1 gene in U2OS, HEPG2, K562 cells and primary human fibroblasts; experiment: EMX1 editing from CPP delivery of CAS9 mRNA/gRNA (T7E1); assay type: cell-based
Method: CPP/CAS9 mRNA/gRNA complexes were formed by mixing the CAS9 mRNA (0.5 μg) and gRNA (5 μg) with CPP at a 20:1 molar ratio of CPP:cargo and incubating for 30 min at 37° C. prior to cell transfection. Suspension and adherent cells were transfected according to the protocols described in Example 13a. RNAiMAX-mediated delivery (Invitrogen Thermo Fisher France) was used as a control. EMX1 gene editing was analyzed at day 3 and day 6 by T7E1 assay and quantified using a Fragment Analyzer System.

[4] = tested on: endogenous EMX1 gene in U2OS, HEPG2, K562 cells and primary human fibroblasts; experiment: EMX1 editing from CPP delivery of CAS9 protein/gRNA (T7E1); assay type: cell-based; settings: each of the cell types tested; 2.5 μg/5 μg CAS9/gRNA
Method: CPP/CAS9/gRNA complexes were prepared by mixing preloaded CAS9/gRNA complexes (2.5 μg/5 μg CAS9/gRNA) with CPP peptides at a 20:1 molar ratio of CPP to cargo and incubating for 30 min at 37° C. prior to cell transfection. Cells were transfected according to the protocols described in Example 13a, and RNAiMAX-mediated delivery (Invitrogen Thermo Fisher France) was used as a control. EMX1 gene editing was analyzed at day 3 and day 6 by T7E1 assay and quantified using a Fragment Analyzer System.

[5] = tested on: U2OS and HEPG2 cell lines and primary human fibroblasts; experiment: CAS9 protein expression after CPP delivery of CAS9-expressing plasmid (ELISA); assay type: cell-based; settings: day 6
Method: CPP/plasmid complexes were prepared by mixing 0.5 μg of a CAS9-expressing plasmid (Addgene MLM3639-Plasmid #42252) with CPP at a 20:1 molar ratio of CPP:cargo and incubating for 30 min at 37° C. prior to cell transfection. Cells were transfected according to the protocols for adherent and suspension cells described in Example 13a. Lipofectamine 2000 was used as lipid-based delivery control. CAS9 protein expression level was analyzed at multiple time points over a period of 10 days as determined by ELISA on protein extracts using antibodies against CRISPR/Cas9 obtained from Diagenode (Diagenode cat. No. C15200223) and ABCAM (clone 7A9-ab191468).

Swiss mice = experiment: In vivo delivery of CAS9 mRNA by three CPPs: CAS9 expression in tissues (ELISA); set-up: species or system mouse; settings: for ELISA signal for CAS9 protein expression: day 3 and day 6, CAS9 mRNA 5 μg i.v., 20:1; for CAS9 protein expression: other tissues examined
Method: Free CAS9 mRNA in physiological buffer was injected as a control.
At day 3, day 6, and day 10 following injection, animals were sacrificed and tissues including lung, liver, brain, kidney, heart, spleen, blood, pancreas, muscle, bone marrow, and intestine were collected. Tissues were homogenized and CAS9 protein levels in protein extracts were analyzed by ELISA using an antibody against CRISPR/Cas9 (SBI clone 7A9).

PCSK9 = experiment: In vivo CAS9 mRNA/gRNA targeting PCSK9: serum PCSK9 (ELISA); set-up: species or system mouse
Method: Polyadenylated and capped CAS9 mRNA was obtained from ThermoFisher, and gRNA (5 μg) targeting PCSK9 Exon 1 was obtained from Eurogentec. […] Free CAS9 mRNA/gRNA was injected as a control.
Blood samples were collected by saphenous vein bleeds at multiple time points (day 3, 6, 10, and 21), collecting no more than 100 μl or 10% of total blood volume per week. Serum levels of PCSK9 were determined by ELISA using the Mouse Proprotein Convertase 9/PCSK9 Quantikine ELISA Kit (MPC-900, R&DSystems).

primary human T cells = experiment: CAS9 protein expression in primary human T cells after CAS9 mRNA or plasmid delivery (ELISA); assay type: cell-based; settings: day 3
Method: T cells were isolated from PBMCs using anti-CD3/anti-CD28 antibodies bound to paramagnetic beads (Dynabeads ClinExVivo CD3/CD28, Invitrogen) at a ratio of 3:1 (beads:cells). The cells and beads were co-incubated for 2 hours at room temperature and CD3^+ cell enrichment was performed using Dynal ClinExVIVO MPC magnet (Thermo Fisher). The anti-CD3/anti-CD28 paramagnetic beads were removed, washed and concentrated. Cells in the CD3^+ fraction were resuspended in activation media at a concentration of 1×10^6 cells/ml with AIM-V medium (Thermo Fishers) supplemented with 10% fetal calf serum, 300 IU/ml IL2 and 50 ng/ml OKT3 (MuromonAB-CD3) for two days.
CPP/CAS9 complexes were formed by mixing the CAS9 mRNA (0.5 μg) with CPP at a 20:1 molar ratio of CPP:CAS9 mRNA and incubating for 30 min at 37° C. prior to cell transfection. CPP/CAS9-expressing plasmid complexes were formed by mixing the CAS9-expressing plasmid (Addgene MLM3639-Plasmid #42252) (0.5 μg) with CPP at a 20:1 molar ratio of CPP:plasmid and incubating for 30 min at 37° C. prior to cell transfection.
Cells were transfected according to the protocol for suspension cells described in Example 13a. RNAiMAX and lipofectamine 2000 lipid-based delivery methods (Invitrogen Thermo Fisher France) were used as controls, and transfections were performed following the manufacturer's instructions. CAS9 protein expression level was analyzed at multiple time points over a period of 10 days as determine by ELISA on protein extracts using antibodies against CRISPR/Cas9 obtained from Diagenode (Diagenode cat. No. C15200223) and ABCAM (clone 7A9-ab191468).

[6] = tested on: endogenous EMX1 gene in primary human T cells; experiment: EMX1 editing in primary human T cells with CAS9 mRNA, protein or plasmid plus gRNA (T7E1); assay type: cell-based
Method: CPP/CAS9 mRNA/gRNA complexes were formed by mixing the CAS9 mRNA (0.5 μg) and gRNA (5 μg) with CPP at a 20:1 molar ratio of CPP to nucleic acid (mRNA+gRNA) and incubating for 30 min at 37° C. prior to cell transfection. CPP/plasmid/gRNA complexes were formed by mixing CAS9 expressing plasmid (Addgene MLM3639-Plasmid #42252) (0.5 μg) and gRNA (5 μg) with CPP at a 20:1 molar ratio of CPP to nucleic acid (plasmid+gRNA) and incubating for 30 min at 37° C. prior to cell transfection. CPP/CAS9/gRNA complexes were formed by mixing preloaded CAS9/gRNA complexes (2.5 μg/5 μg CAS9/gRNA) with CPP at a 20:1 molar ratio of CPP to complex and incubating for 30 min at 37° C. prior to cell transfection.
T cells were transfected according to the protocol for suspension cells described in Example 13a. Lipofectamine 2000- and RNAiMAX-mediated delivery methods (Invitrogen Thermo Fisher France) were included as controls. EMX1 gene editing was analyzed at day 3, day 6, and day 10 by T7E1 assay and quantified using a Fragment Analyzer System.

[7] = Particle size, polydispersity and zeta potential with different cargoes (Zetasizer NANO ZS P); assay type: physicochemical; settings: 20:1; for formation of stable nanoparticles: with CAS9-mRNA and CAS9-mRNA/gRNA complex
Method: The CPP/CAS9-protein, CPP/CAS9-protein/sgRNA, CPP/CAS9-mRNA, CPP/CAS-mRNA/sgRNA particles were characterized; the mean size, polydispersity, and zeta potential were measured with a Zetasizer NANO ZS P apparatus (Malvern Ltd).
The mean size and the polydispersity of the CCP/cargo complexes were determined at 25° C. for 5 min per measurement and zeta potential was measured with a Zetasizer NANO ZS P apparatus (Malvern Ltd).

[8] = CPP/CAS9 and CPP/CAS9:gRNA particle size, polydispersity, zeta potential (Zetasizer 4); assay type: physicochemical
Method: The CPP/CAS9 and CPP/CAS9/sgRNA particles were further characterized; the mean size, polydispersity and zeta potential were measured with Zetasizer 4 apparatus (Malvern Ltd). […] The mean size and the polydispersity of the CCP/CAS9 and CCP/CAS9:gRNA complexes were determined at 25° C. for 3 min per measurement and zeta potential was measured with Zetasizer 4 apparatus (Malvern Ltd).

[9] = tested on: endogenous EMX1 gene in U2OS, JURKAT and K562 cells; experiment: EMX1 gene editing from CPP delivery of CAS9/gRNA (T7E1 assay); assay type: cell-based, human
Method: RNAiMAX delivery was used as a positive control as it was previously reported to show better results than Lipofectamine 2000 (Zuris et al., 2015, supra). […] Cells were returned to the incubator for 72 hours.

[10] = tested on: endogenous EMX1 and exogenous EGFP reporter genes in GFP-U2OS, EGFP-JURKAT cells; experiment: Delivery of multiple RGEN/gRNA complexes: EMX1 and EGFP editing; assay type: cell-based, human
Method: RNAiMAX delivery was used as positive control. Cells were treated as described previously and CAS9-induced NHEJ analyzed 72 hr after transfection. […] The deletion (indel) frequency in the EMX1 gene was quantified using the T7E1 assay and loss of EGFP expression was monitored by flow cytometry. Data for on-target mutations induced by RGEN/gRNA are reported as an average of 3 separate experiments.

[11] = tested on: endogenous EMX1 gene in U2OS, HEPG2 cells and primary human fibroblasts; experiment: EMX1 editing from CPP delivery of CAS9-expressing plasmid and gRNA (T7E1); assay type: cell-based; settings: the three cell types
Method: EMX1-targeting gRNAs were prepared as described above. CPP/plasmid/gRNA complexes were prepared by mixing 0.5 μg of a CAS9-expressing plasmid (Addgene MLM3639-Plasmid #42252) and 5 μg gRNA with CPP at a 20:1 molar ratio of CPP to nucleic acid (plasmid+gRNA) and incubating for 30 min at 37° C. prior to cell transfection. Suspension and adherent cells were transfected according to the protocols described in Example 13a. Lipofectamine 2000- and RNAiMAX-mediated delivery methods (Invitrogen Thermo Fisher France) were used as controls. EMX1 gene editing was analyzed at day 3 and day 6 by T7E1 assay and quantified using a Fragment Analyzer System.

[12] = day 1, CAS9 mRNA 5 μg/gRNA 5 μg single i.v.
[13] = CAS9-expressing plasmid and gRNA, day 3
[14] = with CAS9-mRNA and CAS9-mRNA/gRNA

CC(C)C[C@H](NC(=O)CCN)C(=O)N[C@@H](Cc1c[nH]c2ccccc12)C(=O)N[C@@H](CCCNC(=N)N)C(=O)N[C@@H](C)C(=O)N[C@@H](CC(C)C)C(=O)N[C@@H](Cc1c[nH]c2ccccc12)C(=O)N[C@@H](CCCNC(=N)N)C(=O)N[C@@H](CC(C)C)C(=O)N[C@@H](Cc1c[nH]c2ccccc12)C(=O)N[C@@H](CCCNC(=N)N)C(=O)N[C@@H](CO)C(=O)N[C@@H](CC(C)C)C(=O)N[C@@H](Cc1c[nH]c2ccccc12)C(=O)N[C@@H](CCCNC(=N)N)C(=O)N[C@@H](CC(C)C)C(=O)N[C@@H](CC(C)C)C(=O)N[C@@H](Cc1c[nH]c2ccccc12)C(=O)N[C@@H](CCCCN)C(=O)N[C@@H](C)C(=O)O [VEPEP-6] (H-[βAla]LWRALWRLWRSLWRLLWKA-OH; N-terminus and C-terminus assumed)
reduction of EGFP-positive cells [1]: no significant change | decrease in EGFP expression ([1]; HEK): 30% | reduction of EGFP-expressing cells / loss of EGFP expression [1]: no change in EGFP expression | decrease in EGFP expression ([1]; U2OS): 25% | loss of EGFP expression [1]: no change in EGFP expression | ELISA signal for CAS9 protein expression ([2]; U2OS, K562, HepG2, CAS9 mRNA 0.5 μg): ~30 times the background | ELISA signal for CAS9 protein expression ([2]; primary human fibroblasts): about 20 times the background | mean indel frequencies [3]: about 60% | mean indel frequencies [4]: no significant EMX1 gene editing | ELISA signal for CAS9 protein expression ([5]; U2OS and HEPG2): about 4 times the background | ELISA signal for CAS9 protein expression ([5]; primary human fibroblasts): about 2 times the background | CAS9 expression (Swiss mice; day 10, brain): CAS9 expression was observed | CAS9 expression (Swiss mice; day 10, liver): CAS9 expression was observed | CAS9 expression (Swiss mice; day 10, lung): CAS9 expression was observed | ELISA signal for CAS9 protein expression (Swiss mice; liver): > 15 times that of background | CAS9 expression (Swiss mice; lung): about 8 times that of background | CAS9 protein expression (Swiss mice): Little to no increase | decrease of serum levels of PSCK9 (PCSK9; [12]): 64% | decrease of serum levels of PSCK9 (PCSK9; day 3): 73% | decrease of serum levels of PSCK9 (PCSK9; day 6): 75% | decrease of serum levels of PSCK9 (PCSK9; day 10): 73% | decrease of serum levels of PSCK9 (PCSK9; day 14): 71% | decrease of serum levels of PSCK9 (PCSK9; day 20): 70% | ELISA signal for CAS9 protein expression (primary human T cells; CAS9-expressing plasmid 0.5 μg): little to no CAS9 expression | ELISA signal for CAS9 protein expression (primary human T cells; CAS9 mRNA 0.5 μg): ~17 times the background | mean indel frequencies [6, 13]: little to no EMX1 gene editing | mean indel frequencies ([6]; CAS9 protein/gRNA): little to no EMX1 gene editing | formation of stable nanoparticles [7]: able to form stable nanoparticles | Mean diameter [7, 14]: ~100 nm | polydispersity index (PI) [7, 14]: 0.2

CC(C)C[C@H](NC(=O)CCN)C(=O)N[C@@H](CCCNC(=N)N)C(=O)N[C@@H](Cc1c[nH]c2ccccc12)C(=O)N[C@@H](Cc1c[nH]c2ccccc12)C(=O)N[C@@H](CC(C)C)C(=O)N[C@@H](CCCNC(=N)N)C(=O)N[C@@H](Cc1c[nH]c2ccccc12)C(=O)N[C@@H](C)C(=O)N[C@@H](CO)C(=O)N[C@@H](CCCNC(=N)N)C(=O)N[C@@H](Cc1c[nH]c2ccccc12)C(=O)N[C@@H](Cc1ccccc1)C(=O)N[C@@H](CO)C(=O)N[C@@H](CCCNC(=N)N)C(=O)N[C@@H](Cc1c[nH]c2ccccc12)C(=O)N[C@@H](C)C(=O)N[C@@H](Cc1c[nH]c2ccccc12)C(=O)N[C@@H](Cc1c[nH]c2ccccc12)C(=O)N[C@@H](CCCNC(=N)N)C(=O)O [VEPEP-9]
PI ([8]; Cas9:gRNA, molar ratio 20/1): 0.58 and 0.58 ± 0.1 | Size ([8]; Cas9:gRNA, molar ratio 20/1): 170±10 nm | zeta ([8]; Cas9:gRNA, molar ratio 20/1): 39 ± 8 MV | Pt ([8]; Cas9, molar ratio 20/1): 0.45 ± 0.1 | Size ([8]; Cas9, molar ratio 20/1): 280 ± 20 nm | zeta ([8]; Cas9, molar ratio 20/1): 32 ± 5 mV | formation of stable particles with preloaded CAS9:gRNA complex ([8]; molar ratio 10:1): neither CADY nor VEPEP-9 formed stable particles | reduction of EGFP-positive cells [1]: 22% | decrease in EGFP expression ([1]; HEK): 58% | reduction of EGFP-expressing cells / loss of EGFP expression [1]: no change in EGFP expression | decrease in EGFP expression ([1]; U2OS): 55% | loss of EGFP expression [1]: 5% | Mean indel Frequency ± S.E.M ([9]; JURICAT, CAS9/sgRNA 25 nM): 21% and 21 ± 7% | Mean indel Frequency ± S.E.M ([9]; JURKAT, CAS9/sgRNA 50 nM): 21 ± 5% | Mean indel Frequency ± S.E.M ([9]; K562, CAS9/sgRNA 25 nM): 29% and 29 ± 7% | Mean indel Frequency ± S.E.M ([9]; K562, CAS9/sgRNA 50 nM): 25 ± 5% | Mean indel Frequency ± S.E.M ([9]; U2OS, CAS9/sgRNA 25 nM, 20:1): 27% and 27 ± 3% | Mean indel Frequency ± S.E.M ([9]; U2OS, CAS9/sgRNA 50 nM): 30 ± 6% | Mean indel Frequency ± S.E.M ([10]; JURKAT, EGFP): 15 ± 8% | Mean indel Frequency ± S.E.M ([10]; JURKAT, EMX1): 10 ± 2% | Mean indel Frequency ± S.E.M ([10]; U2OS, EGFP, 25 nM each complex): 32 ± 4% | Mean indel Frequency ± S.E.M ([10]; U2OS, EMX1): 31 ± 5% | mean indel frequencies [3]: about 10% | mean indel frequencies [11]: 35-40% | CAS9 expression (Swiss mice; day 10, brain): CAS9 expression was observed | CAS9 expression (Swiss mice; day 10, liver): CAS9 expression was observed | CAS9 expression (Swiss mice; day 10, lymph node): CAS9 expression was observed | ELISA signal for CAS9 protein expression (Swiss mice; liver): > 8 times that of background | CAS9 protein expression (Swiss mice): Little to no increase | decrease of serum levels of PSCK9 (PCSK9; [12]): 13% | decrease of serum levels of PSCK9 (PCSK9; day 3): 29% | decrease of serum levels of PSCK9 (PCSK9; day 6): 31% | decrease of serum levels of PSCK9 (PCSK9; day 10): 27% | decrease of serum levels of PSCK9 (PCSK9; day 14): 25% | decrease of serum levels of PSCK9 (PCSK9; day 20): 24% | ELISA signal for CAS9 protein expression (primary human T cells; CAS9-expressing plasmid 0.5 μg): about 4 times the background | ELISA signal for CAS9 protein expression (primary human T cells; CAS9 mRNA 0.5 μg): about 4 times the background | mean indel frequencies [6, 13]: about 30% | mean indel frequencies ([6]; CAS9 protein/gRNA): about 20% | formation of stable nanoparticles [7]: able to form stable nanoparticles | Mean diameter [7, 14]: ~120 nm | mean particle size ([7]; with preloaded CAS9-protein/gRNA complex): 210±20
